Measurements: US20100226881A1, “PYRAZOLO[1,5-a]PYRIDINES AND THEIR USE IN CANCER THERAPY” (Auckland Uniservices Limited, priority 2007, published 2010)
Like-named read-outs stand apart in the source and are kept apart here.

Legend:
p110δ/p85 = p110δ/p85 (Homo sapiens, UniProt O00329); assay: Inhibition of isolated enzyme, PI 3-kinase p110δ/p85; assay type: biochemical; details: recombinant enzyme, 100 μM ATP, average of two experiments
Method: (§1) Compounds were evaluated for their ability to inhibit the Class I PI 3-kinase enzymes p110δ/p85, p110α/p85 and p110β/p85. Reaction mixtures comprising 0.1 μg of recombinant enzyme, 10 μg of L-α-phosphatidylinositol, the compound (DMSO only or DMSO+compound to a final concentration of 1%), 2× Lipid Kinase Buffer (40 mM Tris-HCl pH 7.4, 200 mM NaCl, 1 mM EDTA) were activated by the addition of an ATP mix (5 mM MgCl2, 100 μM ATP, 0.1 μL [γ^33P]ATP). […] Firstly, 200 μL of chloroform/methanol (1:1) was added, the biphasic reactions mixed and centrifuged briefly, and the inorganic phase was removed and discarded.

p110α/p85 = p110α/p85 (Homo sapiens, UniProt P42336); assay: Inhibition of isolated enzyme, PI 3-kinase p110α/p85
NZB5 = assay: Cellular growth inhibition (3H-thymidine), NZB5; assay type: cell-based; details: Homo sapiens, five days, 3H-thymidine incorporation, maximum 20 μM
Method: (§2) The compounds were evaluated against two early passage human cell lines NZB5 and NZOV9, whose development and culture have been described [Marshall et al, Oncol. Res. 2004, 14, 297]. The cells were grown in ITS medium (α-modified minimal essential medium supplemented insulin, transferrin, selenite and 5% fetal bovine serum) and grown on 96-well tissue culture plates under an atmosphere of 5% O2, 5% CO2 and 90% N2. Individual wells contained 500-1000 cells (depending on the growth rate) in a volume of 150 μL. Compounds were added at 10-fold concentration steps to a maximum of 20 μM and plates were incubated for five days, with ^3H-thymidine being added over the last 6 h. Cells were harvested and incorporated radioactivity measured. Duplicate samples were analyzed for each compound dose with multiple control samples. Data were fitted by a least-squares method to an exponential of the form y=y0+ae^−bx, where y is the radioactivity (corrected for background and normalized to 100% of the control) x is the radiation dose, and y0, a and b are variables, and the IC50 value defined as the compound concentration reducing ^3H-thymidine levels by 50%.

NZOV9 = assay: Cellular growth inhibition (3H-thymidine), NZOV9; assay type: cell-based; details: Homo sapiens, five days, 3H-thymidine incorporation, maximum 20 μM
Method: as §2

p110β/p85 = p110β/p85 (Homo sapiens, UniProt P42338); assay: Inhibition of isolated enzyme, PI 3-kinase p110β/p85; assay type: biochemical; details: recombinant enzyme, 100 μM ATP, average of two experiments
Method: as §1

[1] = read-out: IC50 (nM) p110α, recombinant enzyme, 100 μM ATP, average of two experiments

Sequence of p110α/p85 (P42336 whole entry, species assumed): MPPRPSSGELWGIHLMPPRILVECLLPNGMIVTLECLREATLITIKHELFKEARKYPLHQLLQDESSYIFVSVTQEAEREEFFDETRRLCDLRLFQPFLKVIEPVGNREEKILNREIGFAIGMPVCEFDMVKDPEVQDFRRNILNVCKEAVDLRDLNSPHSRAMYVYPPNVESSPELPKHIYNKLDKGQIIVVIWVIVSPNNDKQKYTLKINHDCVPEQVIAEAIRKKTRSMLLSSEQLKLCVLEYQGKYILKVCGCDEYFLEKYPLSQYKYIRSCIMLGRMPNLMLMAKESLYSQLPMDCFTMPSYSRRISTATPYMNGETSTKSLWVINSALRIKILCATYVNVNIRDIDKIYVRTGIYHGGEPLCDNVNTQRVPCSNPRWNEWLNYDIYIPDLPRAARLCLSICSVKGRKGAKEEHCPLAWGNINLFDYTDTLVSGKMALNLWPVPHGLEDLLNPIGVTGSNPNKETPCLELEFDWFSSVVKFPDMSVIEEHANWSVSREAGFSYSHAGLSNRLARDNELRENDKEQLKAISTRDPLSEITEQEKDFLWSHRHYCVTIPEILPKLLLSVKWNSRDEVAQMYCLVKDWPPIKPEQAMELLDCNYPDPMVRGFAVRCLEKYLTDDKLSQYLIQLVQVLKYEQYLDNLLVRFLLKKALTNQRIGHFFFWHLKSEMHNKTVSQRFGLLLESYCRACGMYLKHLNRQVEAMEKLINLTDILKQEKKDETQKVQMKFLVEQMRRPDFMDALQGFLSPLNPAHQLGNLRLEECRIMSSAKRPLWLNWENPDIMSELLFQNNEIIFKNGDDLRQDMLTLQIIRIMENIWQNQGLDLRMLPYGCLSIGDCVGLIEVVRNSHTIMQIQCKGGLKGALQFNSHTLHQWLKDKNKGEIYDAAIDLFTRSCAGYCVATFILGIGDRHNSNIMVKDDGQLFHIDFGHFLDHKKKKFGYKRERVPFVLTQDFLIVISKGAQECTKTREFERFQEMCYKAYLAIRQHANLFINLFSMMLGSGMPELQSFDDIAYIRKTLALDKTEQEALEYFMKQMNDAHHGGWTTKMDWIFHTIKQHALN
Sequence of p110α/p85 (P27986 whole entry partner, species assumed): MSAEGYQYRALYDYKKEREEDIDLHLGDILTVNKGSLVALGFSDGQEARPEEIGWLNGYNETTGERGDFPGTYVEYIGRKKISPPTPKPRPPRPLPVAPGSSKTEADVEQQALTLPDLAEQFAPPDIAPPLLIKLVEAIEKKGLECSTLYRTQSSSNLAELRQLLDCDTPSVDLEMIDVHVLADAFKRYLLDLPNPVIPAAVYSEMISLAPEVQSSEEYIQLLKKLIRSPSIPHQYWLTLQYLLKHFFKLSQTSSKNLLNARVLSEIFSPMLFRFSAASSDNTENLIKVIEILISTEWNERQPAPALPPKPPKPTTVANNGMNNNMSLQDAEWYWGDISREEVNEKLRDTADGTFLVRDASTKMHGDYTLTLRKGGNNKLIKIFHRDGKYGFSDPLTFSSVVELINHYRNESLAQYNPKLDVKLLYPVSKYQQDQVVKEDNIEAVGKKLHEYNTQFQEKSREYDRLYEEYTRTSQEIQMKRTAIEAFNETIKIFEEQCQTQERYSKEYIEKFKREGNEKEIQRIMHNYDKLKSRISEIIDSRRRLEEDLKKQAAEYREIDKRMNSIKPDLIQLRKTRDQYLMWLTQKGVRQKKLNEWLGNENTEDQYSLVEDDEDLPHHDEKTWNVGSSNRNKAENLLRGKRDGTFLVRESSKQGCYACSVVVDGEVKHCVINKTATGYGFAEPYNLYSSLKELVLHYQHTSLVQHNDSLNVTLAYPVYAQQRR
Sequence of p110δ/p85 (O00329 whole entry, species assumed): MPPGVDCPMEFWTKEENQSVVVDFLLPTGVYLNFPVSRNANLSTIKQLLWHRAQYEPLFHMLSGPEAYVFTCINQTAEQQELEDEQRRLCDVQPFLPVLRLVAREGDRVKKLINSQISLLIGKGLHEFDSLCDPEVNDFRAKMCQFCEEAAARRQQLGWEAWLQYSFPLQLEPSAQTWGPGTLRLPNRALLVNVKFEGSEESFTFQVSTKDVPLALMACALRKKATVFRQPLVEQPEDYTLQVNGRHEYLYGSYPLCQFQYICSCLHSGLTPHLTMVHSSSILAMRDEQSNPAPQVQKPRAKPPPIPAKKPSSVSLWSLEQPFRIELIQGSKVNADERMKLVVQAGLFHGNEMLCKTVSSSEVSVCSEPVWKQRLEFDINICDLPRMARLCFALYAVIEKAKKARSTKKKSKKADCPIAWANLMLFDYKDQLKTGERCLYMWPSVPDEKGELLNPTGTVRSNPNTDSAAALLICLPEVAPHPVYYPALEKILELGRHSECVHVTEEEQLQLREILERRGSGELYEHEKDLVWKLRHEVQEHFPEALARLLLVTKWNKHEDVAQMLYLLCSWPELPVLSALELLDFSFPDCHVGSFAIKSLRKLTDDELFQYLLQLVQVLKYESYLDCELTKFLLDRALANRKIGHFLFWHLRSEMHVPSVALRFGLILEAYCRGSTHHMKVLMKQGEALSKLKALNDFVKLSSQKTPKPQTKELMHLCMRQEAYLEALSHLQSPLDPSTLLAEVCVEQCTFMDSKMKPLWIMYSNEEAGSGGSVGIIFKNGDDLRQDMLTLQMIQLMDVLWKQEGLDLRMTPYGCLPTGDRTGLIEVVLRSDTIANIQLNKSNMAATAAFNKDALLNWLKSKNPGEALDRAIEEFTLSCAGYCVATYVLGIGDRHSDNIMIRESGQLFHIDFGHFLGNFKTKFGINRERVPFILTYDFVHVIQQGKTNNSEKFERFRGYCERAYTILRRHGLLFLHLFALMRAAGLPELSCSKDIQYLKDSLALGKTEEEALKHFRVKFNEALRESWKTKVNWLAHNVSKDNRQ
Sequence of p110δ/p85 (P27986 whole entry partner, species assumed): as the sequence (P27986 whole entry partner, species assumed) above
Sequence of p110β/p85 (P42338 whole entry, species assumed): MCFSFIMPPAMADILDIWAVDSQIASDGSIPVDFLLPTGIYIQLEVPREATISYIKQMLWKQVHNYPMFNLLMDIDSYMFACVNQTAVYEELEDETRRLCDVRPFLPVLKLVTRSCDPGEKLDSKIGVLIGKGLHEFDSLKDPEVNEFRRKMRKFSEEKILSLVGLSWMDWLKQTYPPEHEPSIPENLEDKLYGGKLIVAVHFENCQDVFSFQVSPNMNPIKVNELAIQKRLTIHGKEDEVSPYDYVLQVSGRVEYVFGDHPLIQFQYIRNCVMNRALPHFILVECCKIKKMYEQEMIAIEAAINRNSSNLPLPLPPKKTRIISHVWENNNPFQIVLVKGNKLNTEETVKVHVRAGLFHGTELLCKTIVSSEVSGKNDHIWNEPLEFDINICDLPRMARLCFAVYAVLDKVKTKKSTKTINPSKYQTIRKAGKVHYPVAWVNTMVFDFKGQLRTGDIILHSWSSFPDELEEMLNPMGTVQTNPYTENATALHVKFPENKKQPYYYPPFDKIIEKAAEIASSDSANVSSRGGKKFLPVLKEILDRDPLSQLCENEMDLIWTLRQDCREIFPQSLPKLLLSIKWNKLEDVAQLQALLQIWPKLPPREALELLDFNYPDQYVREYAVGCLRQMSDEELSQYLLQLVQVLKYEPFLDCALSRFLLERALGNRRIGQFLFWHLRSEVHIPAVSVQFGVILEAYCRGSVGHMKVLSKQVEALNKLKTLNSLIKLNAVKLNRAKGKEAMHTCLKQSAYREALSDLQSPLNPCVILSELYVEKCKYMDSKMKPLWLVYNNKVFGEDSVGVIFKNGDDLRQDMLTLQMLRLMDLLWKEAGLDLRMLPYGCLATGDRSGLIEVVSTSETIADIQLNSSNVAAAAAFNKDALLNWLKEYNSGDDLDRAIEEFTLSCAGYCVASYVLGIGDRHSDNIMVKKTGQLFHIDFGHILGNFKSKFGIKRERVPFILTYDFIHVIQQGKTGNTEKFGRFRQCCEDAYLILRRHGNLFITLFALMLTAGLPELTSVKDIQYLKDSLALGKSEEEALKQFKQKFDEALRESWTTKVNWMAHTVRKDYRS
Sequence of p110β/p85 (P27986 whole entry partner, species assumed): as the sequence (P27986 whole entry partner, species assumed) above

Row | Structure (SMILES) | IC50 (p110δ/p85) | IC50 (p110α/p85; [1]) | IC50 (NZB5) | IC50 (NZOV9) | IC50 (p110β/p85) | IC50 (p110α/p85)
1 | CN(N=Cc1cnn2ccc(C#N)cc12)S(=O)(=O)c1cc([N+](=O)[O-])cnc1Cl [E80, 2-Chloro-N′-((5-cyanopyrazolo[1,5-a]pyridin-3-yl)methylene)-N-methyl-5-nitropyridine-3-sulfonohydrazide] | 230 nM | 23 nM | 7.9 µM | 3.4 µM | 5800 nM | 
2 | CN(N=Cc1cnn2ccc(C#N)cc12)C(=O)c1cccc([N+](=O)[O-])c1 [E82, N′-((5-Cyanopyrazolo[1,5-a]pyridin-3-yl)methylene)-N-methyl-3-nitro-benzohydrazide] | 19 nM | 21 nM | 1.8 µM | 6 µM | 72 nM | 
3 | Cc1ccc([N+](=O)[O-])cc1CN(C)N=Cc1cnn2ccc(C#N)cc12 [E84, 3-((2-Methyl-2-(2-methyl-5-nitrobenzyl)hydrazono)methyl)pyrazolo[1,5-a]pyridine-5-carbonitrile] | 39 nM | 41 nM | 1.7 µM | 1.9 µM | 48 nM | 
4 | Cc1ccc([N+](=O)[O-])cc1S(=O)(=O)n1ccc(-c2cnn3ccc(Br)cc23)n1 [E88, 5-bromo-3-(1-(2-methyl-5-nitrophenylsulfonyl)-1H-pyrazol-3-yl)pyrazolo[1,5-a]pyridine] | 1450 nM | 250 nM | 0.08 µM | 0.07 µM | > 1000 nM | 
5 | O=[N+]([O-])c1cccc(S(=O)(=O)c2nc(-c3cnn4ccc(Br)cc34)cs2)c1 [E90, 4-(5-Bromopyrazolo[1,5-a]pyridin-3-yl)-2-(3-nitrophenylsulfonyl)thiazole] | 250 nM | 790 nM | 0.18 µM | 0.61 µM | 5500 nM | 
6 | Cc1ccc([N+](=O)[O-])cc1Sc1nnc(-c2cnn3ccc(Br)cc23)o1 [E91, 2-(5-Bromopyrazolo[1,5-a]pyridin-3-yl)-5-(2-methyl-5-nitrophenylthio)-1,3,4-oxadiazole] | 120 nM |  | 0.73 µM | 2.8 µM | > 1000 nM | 84 nM
